Measurements from the supplement of paper PMC10627819.

Columns and labels:
B. subtilis 168 [1] = assay: fitness (endpoint OD595 vs no drug) (fraction); higher = more growth
In short: (§1)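 With the first reading as background, OD595 was measured every 30 min for 14 h in 384-well plates kept at 37 °C and inoculated at OD595 0.01. TSB, LB Lennox or CY was the medium. Fitness is the optical density at the transition into stationary phase divided by the robust mean of no-drug control wells, with a cap of 1.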

S. aureus Newman [2] = assay: as above
In short: as §1

S. pneumoniae D39V [3] = assay: as above
In short: as §1

B. subtilis 168 [4] = assay: Bliss interaction score (quartile over a dose matrix) (fitness difference); higher = more antagonism (negative = synergy)
In short: (§2)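 Fitness was derived from optical density at entry into stationary phase, divided by the robust mean of the no-drug wells on the same plate. That reading was taken as OD595, and the ratio was capped at 1. Single-drug fitness was inferred from the combination data. The Bliss score, observed fitness minus the expected product of single-drug fitness, was summarised as quartiles over technical, biological and donor/recipient replicates.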

S. aureus DSM 20231 = assay: as above
In short: as §2

S. aureus Newman [5] = assay: as above
In short: as §2

S. pneumoniae D39V [6] = assay: as above
In short: as §2
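Throughout, for Bliss interaction score (quartile over a dose matrix): first quartile when negative (synergy) and third quartile when positive (antagonism).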

CO/N=C(\C(=O)N[C@@H]1C(=O)N2C(C(=O)O)=C(COC(C)=O)CS[C@H]12)c1csc(N)n1 [Cefotaxime] + CC1=C(C(=O)O)N2C(=O)[C@@H](NC(=O)[C@H](N)c3ccccc3)[C@H]2SC1 [Cephalexin]
fitness, one replicate
Details	partner 0.125 µg/mL	partner 0.25 µg/mL	partner 0.5 µg/mL	partner 1 µg/mL
B. subtilis 168 [1], first compound 0.00775 µg/mL	–	0.868	0.903	0.851
B. subtilis 168 [1], first compound 0.0155 µg/mL	–	0.729	0.728	0.748
B. subtilis 168 [1], first compound 0.031 µg/mL	–	0.62	0.631	0.615
S. aureus Newman [2], first compound 0.039 µg/mL	–	0.904	0.952	≥ 1
S. aureus Newman [2], first compound 0.312 µg/mL	–	0.402	0.38	0.371
S. pneumoniae D39V [3], first compound 0.0018 µg/mL	≥ 1	0.959	1	–
S. pneumoniae D39V [3], first compound 0.0035 µg/mL	0.953	0.967	0.977	–
S. pneumoniae D39V [3], first compound 0.007 µg/mL	0.777	0.875	0.724	–

Details	fitness
B. subtilis 168 [1], first compound 0.5 µg/mL, partner 0.125 µg/mL	0.235
B. subtilis 168 [1], first compound 0.5 µg/mL, partner 0.25 µg/mL	0.221
B. subtilis 168 [1], first compound 0.5 µg/mL, partner 0.5 µg/mL	0.248
B. subtilis 168 [1], first compound 1 µg/mL, partner 0.125 µg/mL	0.152
B. subtilis 168 [1], first compound 1 µg/mL, partner 0.25 µg/mL	0.123
B. subtilis 168 [1], first compound 1 µg/mL, partner 0.5 µg/mL	0.148
B. subtilis 168 [1], first compound 2 µg/mL, partner 0.125 µg/mL	0.124
B. subtilis 168 [1], first compound 2 µg/mL, partner 0.25 µg/mL	0.125
B. subtilis 168 [1], first compound 2 µg/mL, partner 0.5 µg/mL	0.0819
S. aureus Newman [2], first compound 0.078 µg/mL, partner 0.25 µg/mL	0.751
S. aureus Newman [2], first compound 0.078 µg/mL, partner 0.5 µg/mL	0.797
S. aureus Newman [2], first compound 0.078 µg/mL, partner 1 µg/mL	0.817
S. aureus Newman [2], first compound 0.156 µg/mL, partner 0.25 µg/mL	0.636
S. aureus Newman [2], first compound 0.156 µg/mL, partner 0.5 µg/mL	0.631
S. aureus Newman [2], first compound 0.156 µg/mL, partner 1 µg/mL	0.713
S. aureus Newman [2], first compound 0.625 µg/mL, partner 0.5 µg/mL	0.248
S. aureus Newman [2], first compound 1.25 µg/mL, partner 0.25 µg/mL	0.159
S. aureus Newman [2], first compound 1.25 µg/mL, partner 0.5 µg/mL	0.111
S. aureus Newman [2], first compound 1.25 µg/mL, partner 1 µg/mL	0.0956
S. aureus Newman [2], first compound 2.5 µg/mL, partner 0.25 µg/mL	0.0395
S. aureus Newman [2], first compound 2.5 µg/mL, partner 0.5 µg/mL	0.0255
S. aureus Newman [2], first compound 2.5 µg/mL, partner 1 µg/mL	0.0566
S. pneumoniae D39V [3], first compound 0.0018 µg/mL, partner 1 µg/mL	0.815
S. pneumoniae D39V [3], first compound 0.0018 µg/mL, partner 2 µg/mL	0.242
S. pneumoniae D39V [3], first compound 0.0018 µg/mL, partner 4 µg/mL	0.0372
S. pneumoniae D39V [3], first compound 0.0035 µg/mL, partner 1 µg/mL	0.679
S. pneumoniae D39V [3], first compound 0.0035 µg/mL, partner 2 µg/mL	0.168
S. pneumoniae D39V [3], first compound 0.0035 µg/mL, partner 4 µg/mL	0.0436
S. pneumoniae D39V [3], first compound 0.007 µg/mL, partner 2 µg/mL	0.0426
S. pneumoniae D39V [3], first compound 0.007 µg/mL, partner 4 µg/mL	0.0416

Details	Bliss interaction score
B. subtilis 168 [4]	0.101
S. aureus DSM 20231	0.0629
S. aureus Newman [5]	0.09
S. pneumoniae D39V [6]	-0.0656

O=C(O)c1cn(C2CC2)c2cc(N3CCNCC3)c(F)cc2c1=O [Ciprofloxacin] + CC1=C\[C@@H](O)CC(=O)Cc2nc(co2)C(=O)N2CCC=C2C(=O)O[C@H](C(C)C)[C@H](C)/C=C/C(=O)NC\C=C\1 [Virginiamycin M1]
fitness
Details	partner 0.0625 µg/mL	partner 0.125 µg/mL	partner 0.25 µg/mL	partner 0.5 µg/mL	partner 1 µg/mL	partner 2 µg/mL
B. subtilis 168 [1], first compound 0.0098 µg/mL	0.941	0.896	0.859	–	–	–
B. subtilis 168 [1], first compound 0.0195 µg/mL	0.739	0.703	0.705	–	–	–
B. subtilis 168 [1], first compound 0.039 µg/mL	0.139	0.0393	0.0545	–	–	–
S. aureus Newman [2], first compound 0.0375 µg/mL	0.664	0.662	0.672	–	–	–
S. aureus Newman [2], first compound 0.075 µg/mL	0.616	0.658	0.703	–	–	–
S. aureus Newman [2], first compound 0.15 µg/mL	0.0348	0.0378	0.0632	–	–	–
S. pneumoniae D39V [3], first compound 0.125 µg/mL	–	–	–	0.969	0.96	0.909
S. pneumoniae D39V [3], first compound 0.25 µg/mL	–	–	–	0.874	0.842	0.784

fitness, one replicate
Details	first compound 0.078 µg/mL	first compound 0.125 µg/mL	first compound 0.156 µg/mL	first compound 0.25 µg/mL	first compound 0.312 µg/mL	first compound 0.5 µg/mL
S. aureus Newman [2], partner 0.5 µg/mL	0.638	–	0.45	–	0.128	–
S. aureus Newman [2], partner 1 µg/mL	0.785	–	0.503	–	0.125	–
S. aureus Newman [2], partner 2 µg/mL	0.72	–	0.472	–	0.161	–
S. pneumoniae D39V [3], partner 0.15 µg/mL	–	0.954	–	0.894	–	0.807
S. pneumoniae D39V [3], partner 0.3 µg/mL	–	0.928	–	0.844	–	0.816

Details	Bliss interaction score
B. subtilis 168 [4]	-0.0881
S. aureus DSM 20231	0.0396
S. aureus Newman [5]	0.0616
S. pneumoniae D39V [6]	-0.0532

O=C(O)c1cn(C2CC2)c2cc(N3CCNCC3)c(F)cc2c1=O [Ciprofloxacin] + CN(N=O)C(=O)N[C@@H](C=O)[C@@H](O)[C@H](O)[C@H](O)CO [Streptozotocin]
Details	fitness
B. subtilis 168 [1], first compound 0.0098 µg/mL, partner 0.15 µg/mL	0.886
B. subtilis 168 [1], first compound 0.0098 µg/mL, partner 0.3 µg/mL	0.954
B. subtilis 168 [1], first compound 0.0098 µg/mL, partner 0.6 µg/mL	0.887
B. subtilis 168 [1], first compound 0.0195 µg/mL, partner 0.15 µg/mL	0.674
B. subtilis 168 [1], first compound 0.0195 µg/mL, partner 0.3 µg/mL	0.678
B. subtilis 168 [1], first compound 0.0195 µg/mL, partner 0.6 µg/mL	0.666
B. subtilis 168 [1], first compound 0.039 µg/mL, partner 0.15 µg/mL	0.117
B. subtilis 168 [1], first compound 0.039 µg/mL, partner 0.3 µg/mL	0.119
B. subtilis 168 [1], first compound 0.039 µg/mL, partner 0.6 µg/mL	0.13
S. aureus Newman [2], first compound 0.0375 µg/mL, partner 0.15 µg/mL	0.602
S. aureus Newman [2], first compound 0.0375 µg/mL, partner 0.3 µg/mL	0.565
S. aureus Newman [2], first compound 0.0375 µg/mL, partner 0.6 µg/mL	0.398
S. aureus Newman [2], first compound 0.075 µg/mL, partner 0.15 µg/mL	0.448
S. aureus Newman [2], first compound 0.075 µg/mL, partner 0.6 µg/mL	0.194
S. aureus Newman [2], first compound 0.15 µg/mL, partner 0.15 µg/mL	0.0223
S. aureus Newman [2], first compound 0.15 µg/mL, partner 0.3 µg/mL	0.0444
S. aureus Newman [2], first compound 0.15 µg/mL, partner 0.6 µg/mL	0.0059
S. pneumoniae D39V [3], first compound 0.125 µg/mL, partner 1.2 µg/mL	0.929
S. pneumoniae D39V [3], first compound 0.125 µg/mL, partner 2.4 µg/mL	0.926
S. pneumoniae D39V [3], first compound 0.125 µg/mL, partner 4.8 µg/mL	0.95
S. pneumoniae D39V [3], first compound 0.25 µg/mL, partner 1.2 µg/mL	0.839
S. pneumoniae D39V [3], first compound 0.25 µg/mL, partner 4.8 µg/mL	0.797
S. pneumoniae D39V [3], first compound 0.5 µg/mL, partner 4.8 µg/mL	0.567

Details	Bliss interaction score
B. subtilis 168 [4]	-0.082
S. aureus DSM 20231	-0.0435
S. aureus Newman [5]	-0.112
S. pneumoniae D39V [6]	-0.0511

CN(C)c1cc(NC(=O)CNC(C)(C)C)c(O)c2c1C[C@H]1C[C@H]3[C@H](N(C)C)C(O)=C(C(N)=O)C(=O)[C@@]3(O)C(O)=C1C2=O [Tigecycline] + CC1=C\[C@@H](O)CC(=O)Cc2nc(co2)C(=O)N2CCC=C2C(=O)O[C@H](C(C)C)[C@H](C)/C=C/C(=O)NC\C=C\1 [Virginiamycin M1]
fitness
Details	first compound 0.039 µg/mL	first compound 0.078 µg/mL	first compound 0.156 µg/mL	first compound 0.65 µg/mL	first compound 1.3 µg/mL	first compound 2.6 µg/mL
B. subtilis 168 [1], partner 0.0625 µg/mL	0.977	0.987	0.96	–	–	–
B. subtilis 168 [1], partner 0.125 µg/mL	0.95	0.938	0.954	–	–	–
B. subtilis 168 [1], partner 0.25 µg/mL	0.997	0.989	0.953	–	–	–
S. aureus Newman [2], partner 0.0625 µg/mL	0.982	≥ 1	≥ 1	–	–	–
S. aureus Newman [2], partner 0.125 µg/mL	0.998	0.999	≥ 1	–	–	–
S. aureus Newman [2], partner 0.25 µg/mL	0.993	0.996	≥ 1	–	–	–
S. pneumoniae D39V [3], partner 0.5 µg/mL	–	–	–	0.99	0.961	0.976
S. pneumoniae D39V [3], partner 1 µg/mL	–	–	–	0.946	0.951	0.956
S. pneumoniae D39V [3], partner 2 µg/mL	–	–	–	0.919	0.904	0.931

one replicate
Details	fitness
B. subtilis 168 [1], first compound 0.125 µg/mL, partner 0.0625 µg/mL	≥ 1
B. subtilis 168 [1], first compound 0.125 µg/mL, partner 0.125 µg/mL	≥ 1
B. subtilis 168 [1], first compound 0.125 µg/mL, partner 0.25 µg/mL	≥ 1
B. subtilis 168 [1], first compound 0.25 µg/mL, partner 0.0625 µg/mL	0.908
B. subtilis 168 [1], first compound 0.25 µg/mL, partner 0.125 µg/mL	0.908
B. subtilis 168 [1], first compound 0.25 µg/mL, partner 0.25 µg/mL	0.98
B. subtilis 168 [1], first compound 0.5 µg/mL, partner 0.0625 µg/mL	0.959
B. subtilis 168 [1], first compound 0.5 µg/mL, partner 0.125 µg/mL	0.903
B. subtilis 168 [1], first compound 0.5 µg/mL, partner 0.25 µg/mL	0.925
S. aureus Newman [2], first compound 0.039 µg/mL, partner 0.5 µg/mL	0.817
S. aureus Newman [2], first compound 0.039 µg/mL, partner 1 µg/mL	0.983
S. aureus Newman [2], first compound 0.039 µg/mL, partner 2 µg/mL	0.768
S. aureus Newman [2], first compound 0.078 µg/mL, partner 0.5 µg/mL	0.817
S. aureus Newman [2], first compound 0.078 µg/mL, partner 1 µg/mL	0.877
S. aureus Newman [2], first compound 0.078 µg/mL, partner 2 µg/mL	0.742
S. aureus Newman [2], first compound 0.156 µg/mL, partner 0.5 µg/mL	0.86
S. aureus Newman [2], first compound 0.156 µg/mL, partner 1 µg/mL	0.872
S. aureus Newman [2], first compound 0.156 µg/mL, partner 2 µg/mL	0.745
S. pneumoniae D39V [3], first compound 0.65 µg/mL, partner 0.15 µg/mL	0.982
S. pneumoniae D39V [3], first compound 0.65 µg/mL, partner 0.3 µg/mL	0.92
S. pneumoniae D39V [3], first compound 1.3 µg/mL, partner 0.15 µg/mL	0.963
S. pneumoniae D39V [3], first compound 1.3 µg/mL, partner 0.3 µg/mL	0.914
S. pneumoniae D39V [3], first compound 2.6 µg/mL, partner 0.15 µg/mL	0.928
S. pneumoniae D39V [3], first compound 2.6 µg/mL, partner 0.3 µg/mL	0.86

Details	Bliss interaction score
B. subtilis 168 [4]	-0.0387
S. aureus DSM 20231	0.109
S. aureus Newman [5]	-0.0271
S. pneumoniae D39V [6]	-0.0538
